Laboratory results as given in patent publication US3962449A, “Cardioactive bispidones and bispidines” (priority 1974, dated 1976).
Where two headings read alike, the source gives them in different places.

Legend:
[1] = system: experimentally induced heart rhythm disturbances (aconitine) in rats; test: Aconitine-induced heart rhythm disturbances in rats, intravenous pre-treatment; assay type: in vivo, rat; settings: for ED25 / ED50: Rattus norvegicus, iv; for occurrence of heart rhythm disturbances on pre-treatment: aconitine continuously infused intravenously
Description: If rats are continuously infused intravenously with aconitine, then serious disturbances of the cardiac rhythm such as extrasystole, ventricular tachycardia, and ventricular flutter, which finally lead to the death of the experimental animals, can be observed on an electrocardiogram. […] This experimental arrhythmic model is checked by means of clinically tested standard therapeutic compounds as to its reliability and is well suited for characterizing antiarrhythmical compounds in experiments on animals [cf. for example, Bianci et al., Arzneim.-Forsch. 18, 845- 850 (1968); Haas und Busch, Arzneim.-Forsch. 18, 401- 407 (1968); Haas et al., Arzneim.-Forsch.21, 1392- 1399 (1971); Marmo, Naunyn-Schmiedeberg's Arch. Pharmakol. 269, 231- 247 (1971); and Strubelt et al., Naunyn-Schmiedeberg's Arch. Pharmakol. 271, 346- 360 (1971.]
The ED25 or ED50 are the intravenous dosages in mg/kg which allow an increase in administered aconitine doses, relative to the control, by 25 or 50%, respectively, before the occurrence of extrasystoles, ventricular tachycardia, and ventricular flutter.

[2] = system: left auricle of the heart of guinea pigs; test: Functional refractory period and contractility of the isolated left auricle (paired electrical stimulation, adapted from Govier); assay type: cell-based, guinea pig; set-up: Anti-arrhythmic effect (Refractory period extension) ED25 / Inotropic effect (Contraction force lowering) ED25: unit not given here; settings: for Anti-arrhythmic effect (Refractory period extension) ED25: effective dose which extends the refractory period by 25%; for Anti-arrhythmic effect (Refractory period extension) ED25 / Inotropic effect (Contraction force lowering) ED25: guinea pig left auricle, up to 30 minutes; for Inotropic effect (Contraction force lowering) ED25: effective dose which lowers the contractional force by 25%; for Therapeutic Breadth (III/II): ratio of inotropic ED25 to anti-arrhythmic ED25
Description: The experimental procedure utilized paired electrical stimulation in an adaptation of the method of […]. Pharmacol. Exp. […] In this model, the numerous known anti-arrhythmical preparations of differing structure and point of therapeutic attack all show an prolongation of the functional refractory period. The experiment additionally permits a study of the effects of different substances on the contractility of the heart muscles [Reuter und Heeg, Naunyn, Naunyn-Schmiedeberg's Arch. Pharmakol. […] Pharmakol. […] Therefore the experiment is suitable for discovering which substances have the greatest therapeutic range, that is to say, which have the greatest safety margin between the anti-arrhythmic and the negatively inotropically effective dosages. To test the substances, up to 18 and 30 individual experiments were carried out in each case. At least 3 dosages were tested each on 6 auricle preparations and the linear regression functions were calculated[[…] In column II, the […] shown and in column III, the inotropic effect is shown. In column IV, the therapeutic range of the compounds is shown.

[3] = difference between doses producing an anti-arrhythmic effect and a negative inotropic effect; cited from earlier work
[4] = read-out: Ventricular Tachycardia ED25
[5] = read-out: Ventricular Tachycardia ED50
[6] = read-out: Ventricular flutter ED25
[7] = read-out: Ventricular flutter ED50

Structure (SMILES) | ED25 [1, 4] | ED50 [1, 5] | Extrasystoles ED25 ([1]; intravenous, dose allowing 25% increase in aconitine dose relative to control before extrasystoles, rats) | Ventricular flutter ED25 ([1]; intravenous, dose allowing 25% increase in aconitine dose relative to control before ventricular flutter, rats) | Extrasystoles ED50 ([1]; intravenous, dose allowing 50% increase in aconitine dose relative to control before extrasystoles, rats) | Ventricular flutter ED50 ([1]; intravenous, dose allowing 50% increase in aconitine dose relative to control before ventricular flutter, rats) | Anti-arrhythmic effect (Refractory period extension) ED25 [2] | Inotropic effect (Contraction force lowering) ED25 [2] | Therapeutic Breadth (III/II) [2] | therapeutic range [3] | ED25 ([1]; read-out: Extrasystoles ED25) | ED50 ([1]; read-out: Extrasystoles ED50) | ED25 [1, 6] | ED50 [1, 7] | occurrence of heart rhythm disturbances on pre-treatment ([1]; rats)
C1CCN2CC3CC(CN4CCCCC34)C2C1 (single isomer, unassigned) [Spartein, reference compound] | 4.43 mg/kg | 9.55 mg/kg | +) | +) | +) | +) |  |  |  |  |  |  |  |  | 
c1ccc(CN(CC2=NCCN2)c2ccccc2)cc1 [Antazolin] |  |  |  |  |  |  | 0.164 | 0.094 | 0.6 | narrow therapeutic range |  |  |  |  | 
CCN(CC)CC(=O)Nc1c(C)cccc1C [Lidocain] |  |  |  |  |  |  | 0.47 | 0.48 | 1.0 | narrow therapeutic range |  |  |  |  | 
c1ccc(CN2CC3CC(C2)CN(Cc2ccccc2)C3)cc1 [N,N'-dibenzyl-bispidine, N,N'-dibenzylbispidine] | 0.87 mg/kg | 1.23 mg/kg |  |  |  |  | 0.034 | 0.07 | 2.0 |  | 1.06 mg/kg | 1.76 mg/kg | 1.03 mg/kg | 1.48 mg/kg | prevented or at least substantially delayed
CC(C)N1CC2CC(CN(CCc3ccccc3)C2)C1 [N-isopropyl-N'-β-phenylethyl-bispidine] | 1.41 mg/kg | 2.13 mg/kg |  |  |  |  | 0.13 | 0.26 | 2.0 |  | ~1.8 mg/kg | ~2.3 mg/kg | 1.7 mg/kg | 2.47 mg/kg | prevented or at least substantially delayed
CCC[N+]12[C@H](O)[C@@H](CC)[C@@H]3C[C@H]1[C@@H]1N(C)c4ccccc4[C@]14C[C@H]2[C@@H]3[C@H]4O [N-n-propylajmalin] |  |  |  |  |  |  | 0.0037 | 0.0015 | 0.4 |  |  |  |  |  | 
